Activity calls are given as the source filed them. No rule for the calls is given here.
Tested on: UPR adaptive arm reporter cells, luciferase luminescence
Test: activators of adaptive UPR signalling, dose response, cell-based, luciferase luminescence (AID 489032)

Row | Structure (SMILES) | EC50
1 | CCc1ccc2[nH]c3nc(SCc4nnc(-c5ccc(C)cc5)o4)nnc3c2c1 | 39.9 µM (inactive)
2 | Cn1nnnc1Sc1ncnc2scc(-c3ccc(Br)cc3)c12 | > 80 µM (inactive)
3 | CCn1c(/C=C/c2c(C)[nH]c3ccccc23)nc2ccccc2c1=O | > 80 µM (inactive)
4 | CC(C)=CCc1c2c(c3occ(-c4ccc(O)cc4)c(=O)c3c1O)C=CC(C)(C)O2 | > 80 µM (inactive)
5 | CN(C)CCCn1cnc2c(c1=N)C(c1ccccc1)c1ccc3ccccc3c1O2 (configuration not stated) | > 80 µM (inactive)
6 | Cc1cccc2sc(NC(=O)c3cc(S(=O)(=O)N(C)C)ccc3N3CCCC3)nc12 | 9.84 µM
7 | CC(C)(C)c1cc(-c2nc(N)nc(N)n2)c(O)c(C(C)(C)C)c1 | 38.8 µM (inactive)
8 | CCOc1ccc(NC(=S)NC(=O)/C=C/c2ccc(OC)c(OC)c2)c([N+](=O)[O-])c1 | > 80 µM (inactive)
9 | O=C1NC(=O)C(=Cc2cn(CCOc3ccc4c(c3)OCO4)c3ccccc23)C(=O)N1 | 31.2 µM (inactive)
10 | Cc1cccc(NC(=O)CSc2nc(C)c(CC(=O)c3ccc(Br)cc3)c(C)c2C#N)c1C | > 80 µM (inactive)
11 | CC(C)C(=O)N(c1cc2sc(=O)oc2c2ccccc12)S(=O)(=O)c1cccs1 | > 80 µM (inactive)
12 | CCc1ccc(NC(=O)C(CC)Sc2nc3cc4c(cc3c(=O)n2Cc2ccco2)OCO4)cc1 (configuration not stated) | > 80 µM (inactive)
13 | O=C(Oc1ccc(F)cc1C(=O)/C=C/c1cccs1)c1cccc([N+](=O)[O-])c1 | 51.3 µM (inactive)
14 | Cc1nc(Nc2nc(-c3ccccc3)cc(=O)[nH]2)nc2ccccc12 | 11.9 µM
15 | O=C(Nc1ccc(O)c(-c2nc3ccccc3s2)c1)c1cc(=O)c2ccccc2o1 | > 80 µM (inactive)
16 | O=c1oc(CCCO)cc2ccc(/C=C/c3cccc([N+](=O)[O-])c3)cc12 | 36.8 µM (inactive)
17 | CN1C(=O)/C(=C/c2ccc(C(=O)NC3CCCC3)cc2)Oc2ccccc21 | > 80 µM (inactive)
18 | CN1/C(=C\C(=O)COC(=O)c2ccc(O)c(O)c2)C(C)(C)c2ccccc21 | > 80 µM (inactive)
19 | Cc1c(Cl)cccc1Nc1nc(NCCO)c2ccccc2n1 | 26.6 µM (inactive)

Row | Structure (SMILES) | EC50
20 | COC(=O)c1c(NC(=O)CC2Nc3ccccc3NC2=O)sc(C)c1C (configuration not stated) | > 80 µM (inactive)
21 | CCCCCCCCCCOC(=O)Cn1c(COc2ccccc2OC)[n+](C)c2ccccc21 | 18.1 µM
22 | CC1=Nc2ccccc2/C1=C\c1sc(Nc2ccc(C)cc2)nc1O | > 80 µM (inactive)
23 | Cc1ccc(-n2nc3cc(C)c(NC(=S)NC(=O)/C=C/c4ccco4)cc3n2)cc1 | 35.9 µM (inactive)
24 | CCCCN(CC)S(=O)(=O)c1ccc(C(=O)N=c2sc3cc(NC(C)=O)ccc3n2C)cc1 | 5.4 µM
25 | O=C(Nc1ccc2nc3n(c(=O)c2c1)CCCCC3)c1ccccc1Cl | > 80 µM (inactive)
26 | CCOC(=O)c1c(NC(C)=O)sc2c(OCC(O)CNC(C)(C)C)c(Br)ccc12 (configuration not stated) | > 80 µM (inactive)
27 | Nc1nc(SCc2ccc(Cl)cc2Cl)nc2nc3c(cc12)CCCC3 | > 80 µM (inactive)
28 | COc1cccc2sc(N3CCN(c4nc5ccccc5s4)CC3)nc12 | > 80 µM (inactive)
29 | CCOC(=O)c1c2ccc(OCC(=O)N/N=C/c3ccc(C)cc3)cc2n2ccccc12 | > 80 µM (inactive)
30 | COc1cc(-c2noc(C)c2/C=C/c2ccc(OC(C)=O)cc2)cc(OC)c1OC | > 80 µM (inactive)
31 | O=C(/C=C1\NC2(CCCC2)Cc2ccccc21)C(=O)N/N=C/c1ccc(O)c(O)c1 | 32 µM (inactive)
32 | CCOC(=O)c1nnc(-c2ccc(C)cc2)nc1Oc1ccc(Cl)cc1Cl | 40 µM (inactive)
33 | COc1cc(/C=N/NC(N)=O)c(Br)cc1OCC(=O)Nc1ccccc1C | > 80 µM (inactive)
34 | COc1ccc(/C=c2\s/c(=C(/C#N)C(=O)NCc3ccco3)n(-c3ccccc3)c2=O)cc1 | > 80 µM (inactive)
35 | CC1C/C(=N/Nc2nc3ccccc3[nH]2)CC(C)(C)C1 (configuration not stated) | > 80 µM (inactive)
36 | Brc1cc2c(cc1/C=N/Nc1nc3ccccc3s1)OCO2 | 57 µM (inactive)
37 | NS(=O)(=O)c1ccc(N/N=C2/CCCCC2C2CCCCC2)c([N+](=O)[O-])c1 (configuration not stated) | > 80 µM (inactive)
